Legend:
RXFP2 = biological target: T1, RXFP2 (Homo sapiens, UniProt Q8WXD0); assay: HTRF cAMP assay in HEK-RXFP2 cells with INSL3 B dimer antagonist co-treatment; assay type: cell-based; conditions: antagonist 10 μM-[…], IBMX 200 μM
T1 construct: expressed in transfected cells
Method: Previous publications have characterized the INSL3/RXFP2 binding model, showing that the B-chain of INSL3 binds with high affinity to the extracellular leucine-rich repeat (LRR) domain of RXFP2. To determine if the RXFP2 agonists interact with the receptor in a similar manner, an INSL3 antagonist (INSL3 B dimer) was used to co-treat HEK-RXFP2 cells with RXFP2 agonists or INSL3 and measure induction of cAMP using the HTRF assay. […] The HTRF cAMP assay was carried out in the presence of 200 μM IBMX to amplify the cAMP signal. For this assay, cells were seeded in 96-well flat-bottom opaque plates at 7,500 cells/well in 60 μL/well of serum-free DMEM medium and allowed to attach overnight at 37° C. and 5% CO2. The next morning, cells were treated with 2 μL of INSL3 B dimer antagonist (10 μM-0.21 nM) and 2 μL of 30 nM INSL3 or 4 μL of vehicle (serum-free DMEM+IBMX). Cells were also treated with 1 μL/well of 0.28 μM compound, 2 μM forskolin, or DMSO vehicle. Cells were incubated for 1 hour at 37° C., 5% CO2, after which kit cAMP-d2 and anti-cAMP antibody were added as previously described. Plates were incubated for 1 hour at room temperature, and then the signal was read on a CLARIOstar plate reader (BMG Labtech, Germany).

[1] = tested on: chimera RXFP2-1 (extracellular domain of RXFP2, transmembrane domain of RXFP1); assay: HTRF cAMP assay in HEK293T cells transiently transfected with chimera RXFP2-1; assay type: cell-based, human
Text: (§1) To further investigate the involvement of the RXFP2 extracellular and transmembrane domains in agonist activation of the receptor, two complementary chimeras were created using the RXFP1 receptor, which is not activated by the agonists of formula (I), to transiently transfect HEK293T cells and measured changes in cAMP induction using the HTRF assay.
(§2) Chimeric receptors were generated by IN-FUSION™ (Takara Bio USA, Inc., San Jose, CA) mutagenesis using full-length human RXFP1 and RXFP2 receptor constructs. Polymerase chain reaction (PCR) was performed using PfuTurbo high-fidelity DNA polymerase (Agilent Technologies, Santa Clara, CA) and overlapping primers with at least 15 bp sequence homology within the fusion site. PCR products were digested with Dpnl restricton enzyme at 37° C. overnight, run on a 0.8% agarose gel and purified using the GENEJET™ Gel extraction kit (Thermo Scientific, Waltham, MA). The purified DNA fragments were then ligated into the BamHI and XhoI pre-digested pcDNA3.1™/Zeo(+) AmpR mammalian expression vector using the In-Fusion HD enzyme premix (Clontech, Mountain View, CA) at 50° C. for 15 minutes, and the resulting product was used to transform Stellar competent cells (Takara Bio USA, Inc., San Jose, CA). The clones were fully sequenced to confirm the correct fusion of both receptor fragments. Chimera RXFP2-1 contained the extracellular domain of RXFP2 and the transmembrane domain of RXFP1. Accordingly, chimera RXFP1-2 contained the extracellular domain of RXFP1 and the transmembrane domain of RXFP2.
(§3) HEK293T cells were seeded in 6-well flat-bottom clear plates at 0.5 million cells/well in 2 mL/well of growth medium (DMEM, 10% FBS, 1× Pen/Strep) and allowed to attach overnight at 37° C. and 5% CO2. The next morning, cells were transfected with 2 μg of plasmid (chimeric receptors, WT RXFP2, or WT RXFP1) and 6 μl of Lipofectamine2000 (Invitrogen, Waltham, MA) in a total volume of 200 μl/well OPTI-MEM™ I (Thermo Fisher, Waltham, MA) reduced serum medium and allowed to incubate an additional 24 hours. The next day, transfected cells were seeded in 96-well flat-bottom opaque plates at 30,000 cells/well in 60 μL/well of serum-free DMEM medium and allowed to attach overnight at 37° C. at 5% CO2. The next morning, cells were treated with 1 μL/well of compound (25 μM-0.25 nM), 2 μM forskolin, or DMSO vehicle. Cells were also treated with 4 μL of positive control INSL3 (100-0.01 nM), Relaxin2 (100-10 nM), or vehicle (serum-free DMEM+IBMX). Plates were incubated for 1 hour at 37° C. and 5% CO2, after which kit cAMP-d2 and anti-cAMP antibody were added as previously described. Cells were incubated for 1 hour at room temperature, and then the signal was read on a CLARIOstar plate reader (BMG Labtech, Germany).

[2] = biological target: T2, chimera RXFP1-2 (extracellular domain of RXFP1, transmembrane domain of RXFP2) (Homo sapiens, UniProt Q8WXD0); assay: HTRF cAMP assay in HEK293T cells transiently transfected with chimera RXFP1-2; assay type: cell-based; conditions: RXFP1-2 chimera
T2 construct: other: RXFP1-2 chimera; Emax; normalized to 2 μM forskolin cAMP response as 100% activity; fused on or other part: FLAG tag; The RXFP1 extracellular domain is the N-terminal part of the chimera and the RXFP2 transmembrane domain is the C-terminal part; Q9HBX9 (Relaxin receptor 1)
T2 sequence (Q8WXD0 417-754 limits assumed, change not shown): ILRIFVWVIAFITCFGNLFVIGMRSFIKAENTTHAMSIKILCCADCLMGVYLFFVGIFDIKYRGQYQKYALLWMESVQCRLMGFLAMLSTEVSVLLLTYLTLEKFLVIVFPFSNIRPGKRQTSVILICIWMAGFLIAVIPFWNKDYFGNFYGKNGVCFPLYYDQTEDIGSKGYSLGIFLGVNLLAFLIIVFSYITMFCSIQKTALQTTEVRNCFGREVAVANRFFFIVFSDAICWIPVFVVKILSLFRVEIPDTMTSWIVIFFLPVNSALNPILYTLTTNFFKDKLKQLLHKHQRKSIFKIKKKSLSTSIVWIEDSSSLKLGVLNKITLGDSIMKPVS
Text: as §1, §2, §3

[3] = tested on: chimera RXFP1-2 (extracellular domain of RXFP1, transmembrane domain of RXFP2); assay: as above; assay type: cell-based, human
Text: as §1, §2, §3

T1 sequence (Q8WXD0 whole entry): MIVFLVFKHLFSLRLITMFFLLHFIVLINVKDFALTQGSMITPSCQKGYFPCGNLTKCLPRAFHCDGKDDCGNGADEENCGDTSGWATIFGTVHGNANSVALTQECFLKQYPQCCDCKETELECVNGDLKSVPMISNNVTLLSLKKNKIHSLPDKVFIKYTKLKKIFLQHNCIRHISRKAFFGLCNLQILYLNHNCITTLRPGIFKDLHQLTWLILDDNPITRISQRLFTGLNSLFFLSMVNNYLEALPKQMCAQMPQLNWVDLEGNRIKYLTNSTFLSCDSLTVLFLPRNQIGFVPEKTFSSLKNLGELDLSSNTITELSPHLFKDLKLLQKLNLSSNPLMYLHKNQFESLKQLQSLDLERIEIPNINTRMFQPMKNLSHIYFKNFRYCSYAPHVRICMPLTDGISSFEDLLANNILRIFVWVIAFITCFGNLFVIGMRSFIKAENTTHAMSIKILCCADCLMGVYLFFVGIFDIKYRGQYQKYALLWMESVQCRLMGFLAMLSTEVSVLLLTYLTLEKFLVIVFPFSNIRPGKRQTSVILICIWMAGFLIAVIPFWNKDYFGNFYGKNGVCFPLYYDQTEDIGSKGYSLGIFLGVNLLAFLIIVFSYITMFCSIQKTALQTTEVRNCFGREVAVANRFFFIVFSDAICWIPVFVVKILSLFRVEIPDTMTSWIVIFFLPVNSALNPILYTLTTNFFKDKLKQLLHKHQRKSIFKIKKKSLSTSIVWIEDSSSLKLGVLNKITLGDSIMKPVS

O=C1Nc2ccc(-c3cc(C(F)(F)F)cc(C(F)(F)F)c3)cc2C(=O)N2CCN(C(=O)COc3ccc(OC(F)(F)F)cc3I)C[C@@H]12 [Example 187, (S)-8-(3,5-bis(trifluoromethyl)phenyl)-2-(2-(2-iodo-4-(trifluoromethoxy)phenoxy)acetyl)-1,3,4,12a-tetrahydrobenzo[e]pyrazino[1,2-a][1,4]diazepine-6,12 (2H, 11H)-dione]
effect of INSL3 B dimer antagonist on cAMP response induced by the compound (RXFP2): no effect
cAMP response of chimera RXFP2-1 [1]: no response
Emax ([2]; HEK-293T, normalized to 2 μM forskolin cAMP response as 100% activity): 96.47 ± 0.43%
EC50 ([2]; read-out: EC50 (μM or nM)): 0.016 ± 0.002 µM
cAMP response of chimera RXFP1-2 [3]: levels comparable to WT RXFP2

Source: patent publication US20250134907A1, “FUSED DIAZEPINES AS AGONISTS OF THE INSULIN-LIKE 3 (INSL3) PEPTIDE RECEPTOR RXFP2 AND METHODS OF USE THEREOF” (The United States of America,as represented by the …, priority 2022, published 2025)
